Data set [1] is described as follows: Inhibition of LuxP/LuxQ mediated AI2-dependent quorum sensing in Vibrio harveyi MM32 incubated for 4 to 6 hrs measured every 30 mins by luminescence assay.
The test system of a further data set is Vibrio harveyi. In words: Growth inhibition of Vibrio harveyi MM32 by spectrophotometry. The note with it: in vivo. The format is organism-based.

Experimental findings from ChEMBL document CHEMBL2150902, “Novel AI-2 quorum sensing inhibitors in Vibrio harveyi identified through structure-based virtual screening” (Bioorg Med Chem Lett, 2012) are described below.

`O=C(O)c1ccc(-c2c(Cl)cc([N+](=O)[O-])cc2Cl)o1`: half-maximal inhibition in data set [1] (IC50) required 40.1 µM. The “growth inhibition (GI)” value in the data set with Vibrio harveyi is “Non-toxic”.
The like results for `CSc1nccc(Oc2ccccc2Cl)n1` were, in that order, 3.42 µM and “Non-toxic”.
Turning to `Cn1cnnc1SCC(=O)Nc1nc2ccccc2s1`, the IC50 in data set [1] came out at 5.51 µM. Also, the “growth inhibition (GI)” value in the data set on Vibrio harveyi is listed as “Non-toxic”.
As for `C=CCOC(=O)C1=CS(=O)(=O)c2ccccc21`, in data set [1], the IC50 turned out to be 3.06 µM. In the data set with Vibrio harveyi, the “growth inhibition (GI)” value was “Toxic”.
On the same counts, the results for `CSC1=CS(=O)(=O)c2ccccc21` are 41 µM and “Toxic”.
The like results for `Cc1cc(=O)n2nc(N)c(/N=N/c3ccccc3)c2[nH]1` were, in that order, 19.8 µM and “Toxic”.
On the same counts, the results for `Fc1ccccc1-c1ccc(CNCc2ccco2)o1` are 14.8 µM and “Toxic”.

Broadly, the IC50 is the concentration needed to halve the response being measured. A high value points to weaker potency.
